Key:
Assay type in all cases: in vivo
[1] = system: barnyardgrass (Echinochloa crus-galli, ECHCG); assay: Pre-emerge greenhouse herbicide test; conditions: 250 g ai/ha, 14 days after application, scale 0-100 (0 no damage, 100 complete death)
Source text: (§1) A standard greenhouse herbicide activity screening system was used to evaluate the herbicidal efficacy and crop safety of these test compounds. Seven broadleaf weed species including redroot pigweed (Amaranthus retroflexus, AMARE), velvetleaf (Abutilon theophrasti, ABUTH), sicklepod (Cassia obtusifolia, CASOB), ivyleaf morningglory (Ipomoea hederacea, IPOHE), lambsquarters (Chenopodium album, CHEAL), common ragweed (Ambrosia artemisiifolia L., AMBEL), and cocklebur (Xanthium strumarium, XANST) were used as test species. Four grass weed species including green foxtail (Setaria viridis, SETVI), barnyardgrass (Echinochloa crus-galli, ECHCG), johnsongrass (Sorghum halepense, SORHA), and large crabgrass (Digitaria sanguinalis, DIGSA) were also used. In addition, three crop species, field corn (Zea mays L., var. Dekalb 527, CORN), soybean (Glycine max L., var. Pella 86, SOY), and upland rice (Ory0a sp., var.Tebonnet, RICE) were included.
(§2) All plants were grown in 10 cm square plastic pots which were filled with a sandy loam soil mix. For pre-emerge tests, seeds were planted one day prior to application of the test compounds. For post-emerge tests, seeds were planted 8-21 days prior to the test to allow emergence and good foliage development prior to application of the test substances. At the time of the post-emerge application, plants of all species were usually at the 2-3 leaf stage of development.
(§3) All test compounds were dissolved in acetone and applied to the test units in a volume of 187 l/ha. Test materials were applied at rates ranging from 15 g ai/ha to 1000 g ai/ha using a track sprayer equipped with a TJ8001E even flow flat fan spray nozzle. Plants were arranged on a shelf so that the top of the canopy (post-emerge) or top of the soil surface (pre-emerge) was 40-45 cm below the nozzle. Pressurized air was used to force the test solution through the nozzle as it was mechanically advanced over the top of all test plants/pots. This application simulates a typical commercial field herbicide application.
(§4) In the post-emerge test, a commercial non-ionic surfactant was also included (0.25% v/v) to enhance wetting of the leaf surfaces of target plants. Immediately after application, test units of the pre-emerge applications were watered at the soil surface to incorporate the test materials.
(§5) At 14 days after application of the test materials, phytotoxicity ratings were recorded. A rating scale of 0-100 was used as previously described in Research Methods in Weed Science, 2nd edition, B. Truelove, Ed., Southern Weed Science Society, Auburn University, Auburn, Ala., 1977. Briefly, “0” corresponds to no damage and “100” corresponds to complete death of all plants in the test unit. This scale was used both to determine efficacy against weed species and damage to crop species. Herbicide activity data for various compounds of this invention, which are shown by compound No. in Tables 1-14, are shown in Tables 16 and 17.

[2] = system: green foxtail (Setaria viridis, SETVI); assay: Pre-emerge greenhouse herbicide test; conditions: 250 g ai/ha, 14 days after application, scale 0-100 (0 no damage, 100 complete death)
Source text: as §1, §2, §3, §4, §5

[3] = system: ivyleaf morningglory (Ipomoea hederacea, IPOHE); assay: Pre-emerge greenhouse herbicide test; conditions: 250 g ai/ha, 14 days after application, scale 0-100 (0 no damage, 100 complete death)
Source text: as §1, §2, §3, §4, §5

[4] = system: johnsongrass (Sorghum halepense, SORHA); assay: Pre-emerge greenhouse herbicide test; conditions: 250 g ai/ha, 14 days after application, scale 0-100 (0 no damage, 100 complete death)
Source text: as §1, §2, §3, §4, §5

[5] = system: lambsquarters (Chenopodium album, CHEAL); assay: Pre-emerge greenhouse herbicide test; conditions: 250 g ai/ha, 14 days after application, scale 0-100 (0 no damage, 100 complete death)
Source text: as §1, §2, §3, §4, §5

[6] = system: large crabgrass (Digitaria sanguinalis, DIGSA); assay: Pre-emerge greenhouse herbicide test; conditions: 250 g ai/ha, 14 days after application, scale 0-100 (0 no damage, 100 complete death)
Source text: as §1, §2, §3, §4, §5

[7] = system: redroot pigweed (Amaranthus retroflexus, AMARE); assay: Pre-emerge greenhouse herbicide test; conditions: 250 g ai/ha, 14 days after application, scale 0-100 (0 no damage, 100 complete death)
Source text: as §1, §2, §3, §4, §5

[8] = system: sicklepod (Cassia obtusifolia, CASOB); assay: Pre-emerge greenhouse herbicide test; conditions: 250 g ai/ha, 14 days after application, scale 0-100 (0 no damage, 100 complete death)
Source text: as §1, §2, §3, §4, §5

[9] = system: velvetleaf (Abutilon theophrasti, ABUTH); assay: Pre-emerge greenhouse herbicide test; conditions: 250 g ai/ha, 14 days after application, scale 0-100 (0 no damage, 100 complete death)
Source text: as §1, §2, §3, §4, §5

[10] = system: field corn (Zea mays L., var. Dekalb 527, CORN); assay: Pre-emerge greenhouse crop damage test
Source text: as §1, §2, §3, §4, §5

[11] = system: soybean (Glycine max L., var. Pella 86, SOY); assay: Pre-emerge greenhouse crop damage test
Source text: as §1, §2, §3, §4, §5

[12] = system: upland rice (Ory0a sp., var.Tebonnet, RICE); assay: Pre-emerge greenhouse crop damage test; conditions: in vivo
Source text: as §1, §2, §3, §4, §5

[13] = system: barnyardgrass (Echinochloa crus-galli, ECHCG); assay: Post-emerge greenhouse herbicide test; conditions: 250 g ai/ha, 14 days after application
Source text: as §1, §2, §3, §4, §5

[14] = system: common ragweed (Ambrosia artemisiifolia L., AMBEL); assay: Post-emerge greenhouse herbicide test; conditions: 250 g ai/ha, 14 days after application
Source text: as §1, §2, §3, §4, §5

[15] = system: green foxtail (Setaria viridis, SETVI); assay: Post-emerge greenhouse herbicide test; conditions: 250 g ai/ha, 14 days after application
Source text: as §1, §2, §3, §4, §5

[16] = system: ivyleaf morningglory (Ipomoea hederacea, IPOHE); assay: Post-emerge greenhouse herbicide test; conditions: 250 g ai/ha, 14 days after application
Source text: as §1, §2, §3, §4, §5

[17] = system: johnsongrass (Sorghum halepense, SORHA); assay: Post-emerge greenhouse herbicide test; conditions: 250 g ai/ha, 14 days after application
Source text: as §1, §2, §3, §4, §5

[18] = system: lambsquarters (Chenopodium album, CHEAL); assay: Post-emerge greenhouse herbicide test; conditions: 250 g ai/ha, 14 days after application
Source text: as §1, §2, §3, §4, §5

[19] = system: large crabgrass (Digitaria sanguinalis, DIGSA); assay: Post-emerge greenhouse herbicide test; conditions: 250 g ai/ha, 14 days after application
Source text: as §1, §2, §3, §4, §5

[20] = system: redroot pigweed (Amaranthus retroflexus, AMARE); assay: Post-emerge greenhouse herbicide test; conditions: 250 g ai/ha, 14 days after application
Source text: as §1, §2, §3, §4, §5

[21] = system: sicklepod (Cassia obtusifolia, CASOB); assay: Post-emerge greenhouse herbicide test; conditions: 250 g ai/ha, 14 days after application
Source text: as §1, §2, §3, §4, §5

[22] = system: velvetleaf (Abutilon theophrasti, ABUTH); assay: Post-emerge greenhouse herbicide test; conditions: 250 g ai/ha, 14 days after application
Source text: as §1, §2, §3, §4, §5

[23] = system: field corn (Zea mays L., var. Dekalb 527, CORN); assay: Post-emerge greenhouse crop damage test
Source text: as §1, §2, §3, §4, §5

[24] = system: soybean (Glycine max L., var. Pella 86, SOY); assay: Post-emerge greenhouse crop damage test
Source text: as §1, §2, §3, §4, §5

[25] = system: upland rice (Ory0a sp., var.Tebonnet, RICE); assay: Post-emerge greenhouse crop damage test
Source text: as §1, §2, §3, §4, §5

[26] = pre-emerge, 250 g ai/ha, 14 days after application, scale 0-100 (0 no damage, 100 complete death)
[27] = 250 g ai/ha, post-emerge, 14 days after application
[28] = var. Dekalb 527, field corn (Zea mays L.), in vivo, 14 days
[29] = var. Pella 86, soybean (Glycine max L.), in vivo, 14 days
[30] = var. Tebonnet, upland rice (Ory0a sp.), 14 days
[31] = var. Tebonnet, upland rice (Ory0a sp.), in vivo, 14 days

SMILES | Pre-emerge Herbicidal Activity ECHCG (phytotoxicity rating) [1] | Pre-emerge Herbicidal Activity SETVI (phytotoxicity rating) [2] | Pre-emerge Herbicidal Activity IPOHE (phytotoxicity rating) [3] | Pre-emerge Herbicidal Activity SORHA (phytotoxicity rating) [4] | Pre-emerge Herbicidal Activity CHEAL (phytotoxicity rating) [5] | Pre-emerge Herbicidal Activity DIGSA (phytotoxicity rating) [6] | Pre-emerge Herbicidal Activity AMARE (phytotoxicity rating) [7] | Pre-emerge Herbicidal Activity CASOB (phytotoxicity rating) [8] | Pre-emerge Herbicidal Activity ABUTH (phytotoxicity rating) [9] | Pre-emerge Herbicidal Activity CORN (crop damage rating) [10, 26] | Pre-emerge Herbicidal Activity SOY (crop damage rating) [11, 26] | Post-emerge Herbicidal Activity ECHCG (phytotoxicity rating 0-100) [13] | Post-emerge Herbicidal Activity SETVI (phytotoxicity rating 0-100) [15] | Post-emerge Herbicidal Activity IPOHE (phytotoxicity rating 0-100) [16] | Post-emerge Herbicidal Activity SORHA (phytotoxicity rating 0-100) [17] | Post-emerge Herbicidal Activity CHEAL (phytotoxicity rating 0-100) [18] | Post-emerge Herbicidal Activity DIGSA (phytotoxicity rating 0-100) [19] | Post-emerge Herbicidal Activity AMARE (phytotoxicity rating 0-100) [20] | Post-emerge Herbicidal Activity CASOB (phytotoxicity rating 0-100) [21] | Post-emerge Herbicidal Activity ABUTH (phytotoxicity rating 0-100) [22] | further results
Cc1nc2c(-n3ncc(C(F)(F)F)cc3=O)c(F)cc(Cl)c2o1 [Compound 12-1] | 100 | 100 | 99 | 100 | 100 | 100 | 100 | 90 | 100 | 100 | 70 | 50 | 0 | 40 | 0 | 0 | 0 | 70 | 10 | 95 | Pre-emerge Herbicidal Activity RICE (crop damage rating) [12]: 90; Post-emerge Herbicidal Activity AMBEL (phytotoxicity rating 0-100) [14]: 20; Post-emerge crop damage CORN (phytotoxicity rating 0-100) [23, 27]: 0; Post-emerge crop damage SOY (phytotoxicity rating 0-100) [24, 27]: 50; Post-emerge crop damage RICE (phytotoxicity rating 0-100) [25, 27]: 10
Cc1nc2c(-n3c(=O)cc(C(F)(F)F)n(C)c3=O)c(F)cc(Cl)c2oc1=O [Compound 3-1, 3-(8-Chloro-6-fluoro-3-methyl-2H-1,4-benzoxazin-2-one-5-yl)-1-methyl-6-trifluoromethyl-2,4(1H,3H)-pyrimidindione] | 0 | 20 | 0 | 0 | 100 | 0 | 60 | 0 | 100 | – | – | 0 | 0 | 50 | 0 | 60 | 0 | 70 | 0 | 95 | Pre-emerge Herbicidal Activity CORN (crop damage rating) [10, 28]: 0; Pre-emerge Herbicidal Activity SOY (crop damage rating) [11, 29]: 0; Pre-emerge Herbicidal Activity RICE (crop damage rating) [12, 30]: 0; Post-emerge Herbicidal Activity AMBEL (phytotoxicity rating 0-100) [14]: 20; Post-emerge crop damage CORN (phytotoxicity rating 0-100) [23, 28]: 0; Post-emerge crop damage SOY (phytotoxicity rating 0-100) [24, 29]: 30; Post-emerge crop damage RICE (phytotoxicity rating 0-100) [25, 31]: 0
CC1Oc2c(Cl)cc(F)c(-n3c(=O)cc(C(F)(F)F)n(C)c3=O)c2NC1=O (centres unmarked) [Compound 4-3, 3-(8-Chloro-6-fluoro-2-methyl-2H-1,4-benzoxazin-3-one-5-yl)-1-methyl-6-trifluoromethyl-2,4(1H,3H)-pyrimidindione] | 99 | 100 | 100 | 100 | 100 | 100 | 100 | 100 | 100 | – | – | 80 | 50 | 100 | 90 | 100 | 70 | 100 | 95 | 100 | Pre-emerge Herbicidal Activity CORN (crop damage rating) [10, 28]: 99; Pre-emerge Herbicidal Activity SOY (crop damage rating) [11, 29]: 100; Pre-emerge Herbicidal Activity RICE (crop damage rating) [12, 30]: 99; Post-emerge crop damage CORN (phytotoxicity rating 0-100) [23, 28]: 100; Post-emerge crop damage SOY (phytotoxicity rating 0-100) [24, 29]: 100; Post-emerge crop damage RICE (phytotoxicity rating 0-100) [25, 31]: 80
Cn1c(C(F)(F)F)cc(=O)n(-c2c(F)cc(Cl)c3c2NC(=O)CO3)c1=O [Compound 4-1] | 70 | 100 | 100 | 95 | 100 | 100 | 100 | 100 | 100 | 90 | 100 | 30 | 10 | 100 | 40 | 100 | 30 | 100 | 80 | 100 | Pre-emerge Herbicidal Activity RICE (crop damage rating) [12]: 90; Post-emerge crop damage CORN (phytotoxicity rating 0-100) [23, 27]: 70; Post-emerge crop damage SOY (phytotoxicity rating 0-100) [24, 27]: 100; Post-emerge crop damage RICE (phytotoxicity rating 0-100) [25, 27]: 65

From US6573218B1, “Fused-benzene derivatives useful as herbicides” (Ishihara Sangyo Kaisha, Ltd., priority 1998, dated 2003)
